The source of these data is patent US9464042B2, “Biguanide derivative, preparation method thereof, and pharmaceutical composition containing same as an active ingredient” (IMMUNOMET THERAPEUTICS INC., priority 2010, dated 2016).

Where a name gives a salt, the structure may show the parent alone.

One data set deals with AMPK. As to the kind of experiment: AMPK activation (AMPKα immunoassay kit, phospho-Thr172) in MCF7 cells. Conditions: 24 h; for AMPK Activation 50 uM (degree of phosphorylated AMPKα Thr172): 50 uM compound. Set-up: AMPK Activation 50 uM (degree of phosphorylated AMPKα Thr172): unit not given here. The data set is classed as cell-based, human. The protocol: The MCF7 cells were put on a 6-well plate and incubated in a DMEM medium containing 10% fetal bovine serum in an incubator to which 5% CO2 was supplied to have a cell count of approximately 5×10^5. 50 μM of the derivatives synthesized in the examples were treated to the each culture medium, and the cells were incubated for 24 hours. Subsequently, the cells were lysed by a method presented in the operation manual of the AMPKα immunoassay kit, and 20 μg of cell lysates were yielded through protein assay.

The test system of a further data set is HCT116 cells. Nature of the data set: Inhibition of cancer cell proliferation (MTT, GIC50). The class given is cell-based. Conditions: Homo sapiens, HCT-116, 48 h incubation. Here is the method:
HCT116 cells derived from human colorectal cancer were used, and a cancer cell proliferation inhibition effect of a biguanide derivative was confirmed by measuring a concentration value (cell growth inhibition concentration, GIC50) at which cell growth was inhibited 50% using a 3-(4,5-dimethylthiazol-2-yl)-2,5-diphenyltetrazolium bromide (MTT) reagent.
First, the HCT116 cells were put on a 96-well plate and incubated for 24 hours to each have cell count of approximately 5000 in a DMEM medium containing 10% fetal bovine serum. Subsequently, to obtain the GIC50 value of each compound, 100 μM (or 200 μM), 25 μM, 6.25 μM, 1.56 μM or 0.39 μM of the compound was treated to each culture medium and then incubated for 48 hours. To confirm living cells after treatment with the compound, MTT was added to each culture medium and further incubated for 3 hours. Generated formazane crystal was dissolved using dimethyl sulfoxide (DMSO), and absorbance of the solution was measured at 560 nm. After the 48-hour incubation, a ratio of […] synthesized in the examples was indicated as cell viability (%) according to each administered concentration. A cell viability curve was plotted using the cell viability (%) and the calculated concentration value (GIC50) of the compound, at which 50% of the growth was inhibited, to confirm an effect on the inhibition of cancer cell proliferation.

[1] abbreviates: 50 uM compound vs 0 (no compound).

Regarding `CCCC/N=C(/NC(=N)N)NC1CCCCCC1.Cl` [Example 1, N4-butyl-N5-cycloheptyl biguanide hydrochloride], the “AMPK Activation Fold” value in the data set with AMPK (setting [1]) came to 4.0. The “AMPK Activation 50 uM (degree of phosphorylated AMPKα Thr172)” value (from here on “AMPK Activation 50 uM”) in the data set on AMPK is given as 21.1. Also, the IC50 (commonly the concentration that gives 50% inhibition) in the data set with HCT116 cells was > 200 µM.
For `CCC/N=C(\NC)NC(=N)N.Cl` [Example 2, N4-propyl-N5-methyl biguanide hydrochloride], the melting point (usually the temperature of the solid-liquid transition) is 170 to 171 °C. For the same molecule, the “AMPK Activation Fold” value in the data set with AMPK (setting [1]) turned out to be 1.0. The “AMPK Activation 50 uM” value with AMPK is listed as 6.5. For the same molecule, the half-inhibitory concentration (IC50) in the data set with HCT116 cells was > 100 µM.
As to `CCCCCC/N=C(\NC)NC(=N)N.Cl` [Example 3, N4-hexyl-N5-methyl biguanide hydrochloride], the “AMPK Activation Fold” value with AMPK (setting [1]) is 5.2. Besides, the “AMPK Activation 50 uM” value with AMPK was 35.5. In the data set on HCT116 cells, the IC50 was > 100 µM.
`C=CC/N=C(\NC)NC(=N)N.Cl` [Example 4, N4-allyl-N5-methyl biguanide hydrochloride] came in with a melting point of 156 to 157 °C. Moreover, the “AMPK Activation Fold” value with AMPK (setting [1]) is 0.8. Besides, the “AMPK Activation 50 uM” value in the data set with AMPK came to 5.3. In addition, the IC50 in the data set with HCT116 cells was > 100 µM.
On the same counts, the results for `CN/C(=N\Cc1ccccc1)NC(=N)N.Cl` [Example 5, N4-benzyl-N5-methyl biguanide hydrochloride] are 113 to 115 °C, 1.6, 10.8 and > 100 µM.
`CN/C(=N\CCc1ccccc1)NC(=N)N.Cl` [Example 6, N4-(phenetyl)-N5-methyl biguanide hydrochloride] displayed a melting point of 126 to 127 °C. Further, in the data set with AMPK (setting [1]), the “AMPK Activation Fold” value turned out to be 4.9. Moreover, the “AMPK Activation 50 uM” value in the data set on AMPK was determined as 33.1. In addition, the IC50 in the data set on HCT116 cells was > 100 µM.
The corresponding values for `CCCCCC/N=C(/NC(=N)N)NC(C)CC.Cl` (stereo not drawn) [Example 7, N4-hexyl-N5-(butane-2-yl)biguanide hydrochloride] are 175 to 176 °C, 5.8, 39.5 and > 100 µM.
On the same counts, the results for `CCC(C)N/C(=N\CCc1ccccc1)NC(=N)N.Cl` (stereo not drawn) [Example 8, N4-(phenetyl)-N5-(butyl-2-yl)biguanide hydrochloride] are 181 to 183 °C, 2.7, 18.4 and > 100 µM.
In the case of `CCCC/N=C(\NCCCC)NC(=N)N.Cl` [Example 9, N4,N5-dibutyl biguanide hydrochloride], the melting point lay in the range of 112 to 114 °C. Also, the “AMPK Activation Fold” value in the data set on AMPK (setting [1]) turned out to be 3.8. For the same molecule, the “AMPK Activation 50 uM” value in the data set on AMPK was 25.6. In the data set with HCT116 cells, the IC50 is > 100 µM.
As to `CCCCCC/N=C(\NCCCC)NC(=N)N.Cl` [Example 10, N4-hexyl-N5-butyl biguanide hydrochloride], the “AMPK Activation Fold” value in the data set on AMPK (setting [1]) worked out at 7.2. The “AMPK Activation 50 uM” value with AMPK came out at 38.1. Besides, the IC50 with HCT116 cells turned out to be 30.3 µM.
The molecule `CCCCN/C(=N\C(C)C)NC(=N)N.Cl` [Example 11, N4-isopropyl-N5-butyl biguanide hydrochloride] returned a melting point of 173 to 175 °C. In the data set on AMPK (setting [1]), the “AMPK Activation Fold” value turned out to be 0.6. Moreover, the “AMPK Activation 50 uM” value in the data set with AMPK is on record as 4.2. Besides, in the data set on HCT116 cells, the concentration for half-maximal inhibition (IC50) is > 100 µM.
On the same counts, the results for `CCCCN/C(=N\C(C)CC)NC(=N)N.Cl` (stereo not drawn) [Example 12, N4-(butane-2-yl)-N5-butyl biguanide hydrochloride] are 193 to 194 °C, 1.5, 8.1 and > 200 µM.
As to `C=CC/N=C(\NCCCC)NC(=N)N.Cl` [Example 13, N4-allyl-N5-butyl biguanide hydrochloride], in the data set with AMPK (setting [1]), the “AMPK Activation Fold” value amounted to 3.9. Moreover, the “AMPK Activation 50 uM” value with AMPK was 20.5. For the same molecule, the IC50 with HCT116 cells is > 200 µM.
On the same counts, the results for `CCCCN/C(=N\Cc1ccco1)NC(=N)N.Cl` [Example 15, N4-(furane-2-yl)methyl-N5-butyl biguanide hydrochloride] are 3.7, 19.4 and > 200 µM.
The corresponding values for `CCCCN/C(=N\Cc1ccccc1)NC(=N)N.Cl` [Example 18, N4-benzyl-N5-butyl biguanide hydrochloride] are 1.8, 9.6 and > 200 µM.
The corresponding values for `CCCCN/C(=N\Cc1cccc(Cl)c1)NC(=N)N.Cl` [Example 20, N4-(3-chloro)benzyl-N5-butyl biguanide hydrochloride] are 1.5, 7.2 and 54.1 µM.
`CCCCN/C(=N\Cc1ccc(Cl)cc1)NC(=N)N.Cl` [Example 21, N4-(4-chloro)benzyl-N5-butyl biguanide hydrochloride] came in with a melting point of 113 to 115 °C. The molecule also came in with a half-maximal inhibitory concentration (IC50) in the data set with HCT116 cells of 13.5 µM.
As to `CCCCN/C(=N\Cc1ccc(OC)cc1)NC(=N)N.Cl` [Example 22, N4-(4-methoxyl)benzyl-N5-butyl biguanide hydrochloride], the “AMPK Activation Fold” value in the data set with AMPK (setting [1]) came to 4.4. Also, the “AMPK Activation 50 uM” value with AMPK amounted to 29.9. Also, the IC50 in the data set with HCT116 cells was > 100 µM.
As for `CCCCN/C(=N\Cc1ccc(Cl)c(Cl)c1)NC(=N)N.Cl` [Example 23, N4-(3,4-dichloro)benzyl-N5-butyl biguanide hydrochloride], in the data set on AMPK (setting [1]), the “AMPK Activation Fold” value turned out to be 7.8. Further, the “AMPK Activation 50 uM” value in the data set on AMPK stood at 19.5. The IC50 in the data set with HCT116 cells was determined as 35.3 µM.
For `CCCCN/C(=N\CCc1ccc(Cl)cc1)NC(=N)N.Cl` [Example 25, N4-(4-chloro)phenethyl)-N5-butyl biguanide hydrochloride], the half-maximal inhibitory concentration (IC50) in the data set with HCT116 cells amounted to 26.5 µM.
Molecule `CCCCN/C(=N\CCc1ccc(Cl)cc1)NC(=N)N.Cl` [Example 25] returned a melting point of 123 to 124 °C. Also, the “AMPK Activation Fold” value in the data set with AMPK (setting [1]) worked out at 6.7. For the same molecule, the “AMPK Activation 50 uM” value in the data set on AMPK is listed as 16.7.
For `C=CC/N=C(\NCc1ccccc1)NC(=N)N.Cl` [Example 29, N4-allyl-N5-benzyl biguanide hydrochloride], the “AMPK Activation Fold” value with AMPK (setting [1]) was 1.0. For the same molecule, the “AMPK Activation 50 uM” value with AMPK is listed as 5.5. The IC50 in the data set on HCT116 cells was > 200 µM.
On the same counts, the results for `Cl.N=C(N)N/C(=N/C1CCCCCC1)NCc1ccccc1` [Example 31, N4-cycloheptyl-N5-benzyl biguanide hydrochloride] are 6.6, 44.6 and > 100 µM.
In turn, `CCCC/N=C(\NCCc1ccccc1)NC(=N)N.Cl` [Example 33, N4-butyl-N5-(phenethyl)biguanide hydrochloride] showed a melting point of 178 to 179 °C. The molecule also showed a 50% inhibitory concentration (IC50) in the data set with HCT116 cells of 6.5 µM.
`Cl.N=C(N)N/C(=N/c1ccccc1)NCCc1ccccc1` [Example 35, N4-phenyl-N5-(phenethyl)biguanide hydrochloride] registered a melting point of 232 to 233 °C. In addition, the “AMPK Activation Fold” value in the data set on AMPK (setting [1]) came to 1.3. Besides, the “AMPK Activation 50 uM” value with AMPK is given as 9.0.
`Cl.N=C(N)N/C(=N/c1ccc(Cl)cc1)NCCc1ccccc1` [Example 36, N4-(4-chloro)phenyl-N5-(phenethyl)biguanide hydrochloride] showed a melting point of 115 to 116 °C. For the same molecule, the IC50 with HCT116 cells stood at 9.3 µM.
Regarding `Cl.N=C(N)N/C(=N/Cc1ccco1)NCCc1ccccc1` [Example 38, N4-(furan-2-yl)methyl-N5-(phenethyl)biguanide hydrochloride], the “AMPK Activation Fold” value in the data set with AMPK (setting [1]) is listed as 3.2. In addition, in the data set with AMPK, the “AMPK Activation 50 uM” value is 22.0. Further, in the data set with HCT116 cells, the half-inhibitory concentration (IC50) is > 100 µM.
The corresponding values for `COc1ccc(C/N=C(/NC(=N)N)N(C)Cc2cccc3ccccc23)cc1.Cl` [Example 46, N4-(4-methoxyl)benzyl-N5,N5-(1-naphthylmethyl)-(methyl) biguanide hydrochloride] are 3.7, 19.5 and 99.1 µM.
For `CN(C)C(=N)N=C(N)N` [Metformin HCl, reference compound], in the data set on AMPK (1 mM metformin vs 0 (no compound)), the “AMPK Activation Fold” value is 3.2. In the data set on AMPK (1 mM metformin), the “AMPK Activation (@ 1 mM) (degree of phosphorylated AMPKα Thr172)” value is recorded as 21.5.
